Like-named read-outs stand apart in the source and are kept apart here.
Key:
[1] = tested on: Antioxidant response element; experiment: MitoOxTox: oxidative stress response in AREc32; details: for EC10, linear / logEC10: Bioassay ARE, dosing range all; for EC10, linear: linear model fit; for logEC10: log-logistic model fit; for EC10: Arec32, read-out: EC10, linear transformed
From the text: (§1) All bioassay media components and the ERα-UAS-bla GripTite and PPARγ-UAS-bla cells were obtained from Thermo Fisher Scientific (Waltham, MA, USA). AREc32 reporter gene cells based on MCF7 were provided by C. Roland Wolf (Cancer Research UK); AhR CALUX cells (H4L7.5c2 derived from H4IIe) were provided by Michael Denison (UC Davis, USA); and SH-SY5Y cells were purchased from Sigma-Aldrich.
(§2) Cell culture conditions and bioassay protocols including response detection are provided in Text S2.1–2.4 and Table S3. − Cell viability was determined from cell confluency using an IncuCyte S3 Live-Cell Analysis System (Sartorius AG, Essen, Germany) before and after exposure, except for SH-SY5Y cells (live–dead staining with Nuclear Green LcS1 and propidium iodide, Abcam, UK). For metabolic activation experiments, cell viability was assessed using the ToxBLAzer DualScreen Kit (Thermo Fisher Scientific) to capture the remaining toxicity in ERα-UAS-bla GripTite after treatment with the aCYP catalyst (details in Text S2.4).
(§3) For ARE, the concentration that triggered an induction ratio of 1.5 (ECIR1.5) was used as the benchmark value, as detailed in Text S2.5. IC10 values also served as a threshold for data analysis in all assays; only concentrations below IC10 were considered when deriving EC10 or ECIR1.5. […]
(§4) S2: Cell culture and bioassays
(§5) S2.1: Cell Culturing Conditions
(§6) All suppliers and sources are given in detail in SI-Excel S3. The bioassay media for the different assays were prepared as follows: Assay medium for ER alpha-UAS-bla GripTite (ERα) and PPAR gamma-UAS-bla 293H (PPARγ) was prepared with 98% Opti-MEM, supplemented with 2% charcoal-stripped FBS, and 100 U/mL penicillin-streptomycin. MitoOxTox and AhR assay medium was comprised of 90% DMEM with GlutaMAX, supplemented with 10% FBS, and 100 U/mL penicillin-streptomycin. Neurotoxicity assay medium consisted of the neurobasal […]
(§7) (1 picture or pasted object on this page, not shown here) […]
(§8) medium, supplemented with 2% B-27 Supplement and 2 mM GlutaMAX Supplement. SH - SY5Y cells were differentiated with 10 µM all-trans retinoic acid prior to the assay.
(§9) S2.2: Cell Seeding and Incubation. For all bioassays, cell suspensions in the respective assay medium were dispensed into each well of 384-well plates using a MultiFlo Dispenser (Biotek, (now Agilent), Winooski, VT, U.S.). After seeding, the plates were incubated at 37° C and 5% CO₂ for […]. The final cell densities and plate types were as follows: Black poly-D-lysine coated 384-well plates (Product No. 354663, Corning Inc., NYC, U.S.) were used for PPARγ:
(§10) 6500 cells/well, ERα: 5000 cells/well. White 384-well plates with a clear bottom (Product No.
(§11) 781098, Greiner, Kremsmünster, Austria) were utilized for the MitoOxTox assay: 2650

[2] = Acidity constant (pKa) measurement, Sirius T3 UV-metric, and speciation at pH 7.4; details: for Double negative form (pH = 7.40) / Negative form (pH = 7.40) / Neutral form (pH = 7.40) / αneutral % (fraction of neutral species): from experimental pKa; for αneutral % (fraction of neutral species): pH 7.4; for pKa: pKa (Acid)
Experimental: Physicochemical properties provide input parameters for the baseline toxicity model. Acidity constants (pK a) and octanol–water partition constants of the neutral species (K ow) were measured with a Sirius T instrument from Pion Inc. (Sussex, UK) (Text S1.2 and Table S1). A detailed description of the pK a and K ow measurements can be found in literature. , […]
S1.2: pKa and log Kow measurements […]
titrator (Pion Inc., Sussex, U.K.). A detailed description of the experimental procedure is available in the literature.1 In brief, each sample was prepared by mixing 5 µL of a 10 mM dimethyl sulfoxide (DMSO) stock solution with 25 µL of a phosphate buffer solution (14.4 mM […]
A reference vial containing 5 µL of DMSO
(Roth, A994-100 ML) and 25 µL of phosphate buffer was analyzed alongside each sample.
The pKa values were determined using the automated UV-metric pKa protocol within the Sirius T3 Control software (version 2.0.0.0.). Each sample was subjected to three consecutive […]
from 2 to 12 by stepwise addition of 0.5 M HCl or 0.5 M potassium hydroxide while recording […]
UV absorbance. […]
To ensure reproducibility, measurements were conducted on at least two

SH-SY5Y cells = experiment: cells; details: for EC10: Homo sapiens, SH-SY5Y; for Specificity ratio (SRbaseline) SRNOI: against baseline cytotoxicity; for Relative effect potency REPNOI: relative to BPA; for EC10, linear / logEC10: NOI bioassay, dosing range all; for EC10, linear: linear model; for logEC10: log-logistic model;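 on Relative effect potency REPNOI: EC10 of BPA divided by EC10 of the test compound so values above 1 mean more potent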;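 on Specificity ratio (SRbaseline) SRNOI: ratio of predicted baseline cytotoxicity IC10 to the neurite outgrowth inhibition EC10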
From the text: as §1, §2, §3, §4, §5, §6, §7, §8, §9, §10, §11

[3] = tested on: Mitochondrial Membrane Potential; experiment: cells; details: for EC10, linear / logEC10: MMP bioassay, dosing range all; for EC10, linear: linear model; for logEC10: log-logistic model; for Specificity ratio (SRbaseline) SRMMP: against baseline cytotoxicity; for Specificity ratio (SRcytotoxicity) SRMMP: human, 24 h; for Relative effect potency REPMMP: relative to BPA
From the text: as §1, §2, §3, §4, §5
All suppliers and sources are given in detail in SI-Excel S3. The bioassay media for the different assays were prepared as follows: Assay medium for ER alpha-UAS-bla GripTite (ERα) and […]
2% charcoal-stripped FBS, and 100 U/mL penicillin-streptomycin. MitoOxTox and AhR assay medium was comprised of 90% DMEM with GlutaMAX, supplemented with 10% FBS, and 100 U/mL penicillin-streptomycin. […]
as §9, with “coated 384-well plates (Product No. 354663, Corning Inc., NYC, U.S.) were used for PPARγ:” left out
as §10
NYC, U.S.) for AhR: 3250 cells/well. Black Collagen I coated plates were used (Product No.
S2.3: Chemical Dosing and Assay Analysis Procedures. The dosing procedure and high-throughput assay workflow have been described in detail before. 9 The dosing concentrations […]
Stock solutions were then either

[4] = read-out: EC10, linear transformed
[5] = Arec32, read-out: EC10, MMP (M)
[6] = Arec32, read-out: EC10, linear transformed
[7] = against experimental cytotoxicity

| Structure (SMILES) | EC10, linear [1] | logEC10 [1] | Double negative form (pH = 7.40) [2] [%] | Negative form (pH = 7.40) [2] [%] | Neutral form (pH = 7.40) [2] [%] | αneutral % (fraction of neutral species) [2] [%] | EC10 (SH-SY5Y cells; read-out: EC10, NOI) [M] | EC10 (SH-SY5Y cells; read-out: EC10, NOI (M)) [M] | EC10 (SH-SY5Y cells; read-out: EC10, linear) [M] | EC10 (SH-SY5Y cells; [4]) [M] | EC10 (SH-SY5Y cells; read-out: logEC10) [M] | Specificity ratio (SRbaseline) SRNOI (SH-SY5Y cells) | Relative effect potency REPNOI (SH-SY5Y cells) | EC10, linear [3] | logEC10 [3] | EC10 ([3]; Arec32, read-out: EC10, MMP) [M] | EC10 [3, 5] [M] | EC10 ([3]; Arec32, read-out: EC10, linear) [M] | EC10 [3, 6] [M] | EC10 ([3]; Arec32, read-out: logEC10) [M] | also measured |
| --- | --- | --- | --- | --- | --- | --- | --- | --- | --- | --- | --- | --- | --- | --- | --- | --- | --- | --- | --- | --- | --- |
| CC1(C)C(O)C(C)(C)C1O (racemic) [r-TMCD, 2,2,4,4-Tetramethyl-1,3-cyclobutanediol (racemate)] | no effect | no effect | 0 | 0 | 100 | 100 | 0.00599 | 0.00599 | 0.00494 | 0.00599 | 0.00603 | 0.17 | 0.00848 | no effect | no effect |  |  |  |  |  |  |
| O=S(=O)(c1ccc(O)cc1)c1ccccc1O [2,4-BPS, 2,4'-Dihydroxydiphenyl sulfone] | no effect | no effect | 5 | 52 | 43 | 43 |  |  |  | 0.000871 |  |  |  |  |  | 5.9e-05 | 5.9e-05 | 4.26e-05 | 5.93e-05 | 5.89e-05 | EC10 [1]: 88700 µM; pKa (Acid) [2]: 8.43; pKa [2]: 7.31; EC10, linear (SH-SY5Y cells): no effect; logEC10 (SH-SY5Y cells): no effect; Specificity ratio (SRbaseline) SRMMP [3]: 11.47; Specificity ratio (SRcytotoxicity) SRMMP [3]: 14.98; Relative effect potency REPMMP [3]: 0.47 |
| CC(C)(c1ccc(OCC2CO2)cc1)c1ccc(OCC2CO2)cc1 (stereo not drawn) [BADGE, Bisphenol A diglycidyl ether] | no effect | no effect | 0 | 0 | 100 | 100 | 3.81e-05 | 3.81e-05 | 3.69e-05 | 4.5e-05 | 3.8e-05 | 0.48 | 1.33 | no effect | no effect |  |  |  | 9.1e-05 |  | oxidative stress response (ARE activation) [1]: lacked any oxidative stress response; Specificity ratio (SRcytotoxicity) SRNOI (SH-SY5Y cells; [7]): 1.50 |
| CC(C)CC(C)(c1ccc(O)cc1)c1ccc(O)cc1 [BP-MIBK, 4,4'-(1,3-Dimethylbutylidene)diphenol] | no effect | no effect |  |  |  |  |  |  |  | 5.05e-05 |  |  |  |  |  | 1.14e-05 | 1.14e-05 | 7.7e-06 | 1.12e-05 | 1.15e-05 | EC10, linear (SH-SY5Y cells): no effect; logEC10 (SH-SY5Y cells): no effect |
| CC(C)(c1ccc(O)cc1)c1ccc(O)cc1 [BPA, 4,4'-(Propane-2,2-diyl)diphenol, reference compound] | no effect | masked by cytotoxicity | 9.99e-6 |  | 100 | 100 | 5.08e-05 | 5.08e-05 | 7.16e-05 | 7.63e-05 | 5.13e-05 | 0.40 | 1.00 |  |  | 2.8e-05 | 2.8e-05 | 2.1e-05 | 2.79e-05 | 2.82e-05 | oxidative stress response (ARE activation) [1]: did not induce ARE; EC10 [1]: 1510 µM; pKa (Acid) [2]: 9.85; pKa [2]: 8.78; Specificity ratio (SRcytotoxicity) SRNOI (SH-SY5Y cells; human, 24 h): 4.68; SR (neurite outgrowth inhibition) (SH-SY5Y cells; specificity ratio): < 10; EC10 (MMP inhibition) [3]: 28 µM; Specificity ratio (SRbaseline) SRMMP [3]: 0.92; Specificity ratio (SRcytotoxicity) SRMMP [3]: 2.92; log(1/EC10) MMP ([3]; input of the ToxPi score, values up to 1.00): 0.71; Relative effect potency REPMMP [3]: 1.00; SR (MMP inhibition) ([3]; specificity ratio): 3 |
| C=CCOc1ccc(S(=O)(=O)c2ccc(O)cc2)cc1 [BPS-MAE, 4-[[4-(Allyloxy)phenyl]sulfonyl]phenol] | no effect | no effect |  |  |  |  | 2.52e-05 | 2.52e-05 | 6.61e-05 | 2.55e-05 | 2.51e-05 |  |  |  |  | 7.85e-05 | 7.85e-05 | 5.59e-05 | 8.31e-05 | 7.76e-05 |  |
| Oc1ccc(C2(c3ccc(O)cc3)CCCCC2)cc1 [BPZ, 1,1'-Bis(4-hydroxyphenyl)cyclohexane] |  |  | 0.00202 | 1.11 | 99 | 99 | 3.05e-05 | 3.05e-05 | 3.52e-05 | 4.31e-05 | 3.02e-05 |  |  |  |  | 2.21e-05 | 2.21e-05 | 1.31e-05 | 2.39e-05 | 2.19e-05 | pKa ([2]; second pKa column, experimental, this study): 10.1; pKa ([2]; experimental, this study): 9.35 |
| Cc1cc(Cc2cc(C)c(O)c(C)c2)cc(C)c1O [TMBPF, Bis(3,5-dimethyl-4-hydroxyphenyl)methane] | no effect | no effect |  |  |  |  | 4.28e-06 | 4.28e-06 | 5.06e-06 | 5.49e-06 | 4.27e-06 | 2.18 | 11.87 | no effect | no effect |  |  |  | 6.68e-05 |  | Specificity ratio (SRcytotoxicity) SRNOI (SH-SY5Y cells; [7]): 2.97 |
| CC1(C)[C@H](O)C(C)(C)[C@H]1O [Trans TMCD] | no effect | no effect |  |  |  |  |  |  | 0.00531 | 0.00415 | 0.00417 |  |  |  |  |  |  | 0.0141 | 0.0185 | 0.0186 |  |
| CC1(C)[C@H](O)C(C)(C)[C@H]1O [t-TMCD, trans-2,2,4,4-Tetramethyl-1,3-cyclobutanediol] |  |  |  | 1e-6 | 100 | 100 | 0.00415 | 0.00415 |  |  |  | 0.24 | 0.0122 |  |  | 0.0185 | 0.0185 |  |  |  | pKa ([2]; phosphate buffer with […] KCl, Sirius T3 titrator, experimental, this study): 15.4; Specificity ratio (SRbaseline) SRMMP [3]: 0.0554; Relative effect potency REPMMP [3]: 0.00152 |
